Data from the NIST ThermoML archive (doi:10.1021/je050060q).

Details: Liquid; for mass density: Pycnometric method

CCCCCCCCCCCCCCCC [hexadecane]
Details | mass density [kg/m3] | speed of sound [m/s]
293.15 K | 773.38 | 1357
298.15 K | 769.97 | 1338
303.15 K | 766.55 | –
308.15 K | 763.12 | 1301
313.15 K | 759.68 | 1283
318.15 K | 756.24 | 1265
323.15 K | 752.79 | 1246
328.15 K | 749.33 | 1228
333.15 K | 745.86 | 1211
338.15 K | 742.39 | 1193
343.15 K | 738.91 | 1176
348.15 K | 735.42 | 1158
353.15 K | 731.93 | 1141
358.15 K | 728.43 | 1124
363.15 K | 724.92 | 1107
368.15 K | 721.4 | 1090
373.15 K | 717.88 | 1074

CCCCCC [hexane]
Details | mass density [kg/m3] | speed of sound [m/s]
293.15 K | 659.44 | 1098
298.15 K | 654.93 | 1076
303.15 K | 650.36 | 1054
308.15 K | 645.74 | 1032
313.15 K | 641.08 | 1010
318.15 K | 636.37 | 988
323.15 K | 631.61 | 966
328.15 K | 626.81 | 944
333.15 K | 621.95 | 921
338.15 K | – | 900
343.15 K | – | 878
348.15 K | – | 856
353.15 K | – | 834
358.15 K | – | 812
363.15 K | – | 790
368.15 K | – | 768
373.15 K | – | 747
